In ChEMBL document CHEMBL3351779, “New tetracyclic tacrine analogs containing pyrano[2,3-c]pyrazole: efficient synthesis, biological assessment and docking simulation study” (Eur J Med Chem, 2015):

How the values were obtained:
[1] = target: T1, Acetylcholinesterase (Electrophorus electricus, UniProt O42275)
Description: Inhibition of electric eel AChE using acetylthiocholine iodide as substrate preincubated for 10 mins followed by substrate addition by Ellman's method

[2] = target: Cholinesterase (Equus caballus, UniProt P81908)
Description: Inhibition of equine serum BuChE using butylthiocholine iodide as substrate preincubated for 10 mins followed by substrate addition by Ellman's method

[3] = Neuroprotective activity against H2O2-induced cell death in rat PC12 cells assessed as cell viability at 10 uM after 24 hrs by MTT assay relative to control; assay type: functional; details: PC-12, 24 h, read-out: Activity
[4] = target: T1, Acetylcholinesterase; experiment: Inhibition of electric eel AChE by Lineweaver-Burk plot

T1 sequence (O42275 whole entry): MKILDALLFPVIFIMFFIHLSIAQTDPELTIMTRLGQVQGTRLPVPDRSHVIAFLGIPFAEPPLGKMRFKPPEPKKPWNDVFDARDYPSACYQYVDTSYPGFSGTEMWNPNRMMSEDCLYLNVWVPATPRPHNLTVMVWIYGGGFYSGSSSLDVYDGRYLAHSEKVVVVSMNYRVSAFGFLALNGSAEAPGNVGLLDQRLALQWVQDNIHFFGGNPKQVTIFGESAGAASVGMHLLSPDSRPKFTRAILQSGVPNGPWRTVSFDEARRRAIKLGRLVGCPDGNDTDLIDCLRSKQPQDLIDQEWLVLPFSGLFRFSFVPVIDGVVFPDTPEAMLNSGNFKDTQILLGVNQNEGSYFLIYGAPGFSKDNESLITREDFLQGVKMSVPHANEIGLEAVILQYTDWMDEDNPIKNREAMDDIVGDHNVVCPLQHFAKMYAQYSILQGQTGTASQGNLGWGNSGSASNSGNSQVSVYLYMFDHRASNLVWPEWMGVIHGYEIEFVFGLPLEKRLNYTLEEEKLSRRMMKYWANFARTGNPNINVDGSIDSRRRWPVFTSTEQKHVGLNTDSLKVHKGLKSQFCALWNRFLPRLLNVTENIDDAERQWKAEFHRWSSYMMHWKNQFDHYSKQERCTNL
Chain of Cholinesterase (P81908 whole entry): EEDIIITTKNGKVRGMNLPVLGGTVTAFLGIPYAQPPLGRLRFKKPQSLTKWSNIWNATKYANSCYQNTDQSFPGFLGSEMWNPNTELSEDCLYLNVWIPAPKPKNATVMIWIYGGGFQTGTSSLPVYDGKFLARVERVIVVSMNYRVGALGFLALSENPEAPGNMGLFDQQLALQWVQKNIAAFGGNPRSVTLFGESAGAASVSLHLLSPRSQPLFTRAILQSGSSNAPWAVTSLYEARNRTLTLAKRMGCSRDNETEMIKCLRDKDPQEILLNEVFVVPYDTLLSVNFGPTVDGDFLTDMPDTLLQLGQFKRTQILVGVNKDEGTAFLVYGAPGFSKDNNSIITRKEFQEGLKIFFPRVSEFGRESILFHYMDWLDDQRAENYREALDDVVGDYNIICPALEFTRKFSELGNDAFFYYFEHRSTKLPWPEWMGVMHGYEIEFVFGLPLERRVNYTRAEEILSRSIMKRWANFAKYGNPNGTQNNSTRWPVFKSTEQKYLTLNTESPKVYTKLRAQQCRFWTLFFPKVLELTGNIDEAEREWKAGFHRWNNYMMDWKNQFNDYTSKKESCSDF

Structure (SMILES): Cc1[nH]nc2c1C(c1cccc([N+](=O)[O-])c1)c1c(nc3c(c1N)CCCC3)O2 (racemic)
- IC50 [1]: 3.27 µM
- IC50 [2]: > 100 µM

Structure (SMILES): COc1cc(C2c3c(n[nH]c3C)Oc3nc4c(c(N)c32)CCCC4)cc(OC)c1OC (racemic)
- IC50 [1]: 2.18 µM
- IC50 [2]: > 100 µM

Structure (SMILES): COc1ccccc1C1c2c(n[nH]c2C)Oc2nc3c(c(N)c21)CCCC3 (racemic)
- IC50 [1]: > 10 µM
- IC50 [2]: > 100 µM

Structure (SMILES): Cc1[nH]nc2c1C(c1cccc(Cl)c1Cl)c1c(nc3c(c1N)CCCC3)O2 (racemic)
- IC50 [1]: 0.87 µM
- IC50 [2]: > 100 µM

Structure (SMILES): Cc1[nH]nc2c1C(c1cccs1)c1c(nc3c(c1N)CCCC3)O2 (racemic)
- IC50 [1]: 0.72 µM
- IC50 [2]: 16 µM

Structure (SMILES): O=c1c(O)c(-c2ccc(O)c(O)c2)oc2cc(O)cc(O)c12 [QUERCETIN]
- viability at 10 µM [3]: 51.6%

Structure (SMILES): Cc1[nH]nc2c1C(c1ccc(F)cc1)c1c(nc3c(c1N)CCCC3)O2 (racemic)
- IC50 [1]: 0.81 µM
- IC50 [2]: 25 µM

Structure (SMILES): Cc1ccc(C2c3c(n[nH]c3C)Oc3nc4c(c(N)c32)CCCC4)cc1 (racemic)
- IC50 [1]: 0.75 µM
- IC50 [2]: 4.5 µM

Structure (SMILES): COc1ccc(C2c3c(n[nH]c3C)Oc3nc4c(c(N)c32)CCCC4)cc1 (racemic)
- IC50 [1]: 0.31 µM
- IC50 [2]: > 100 µM

Structure (SMILES): COc1ccc(C2c3c(n[nH]c3C)Oc3nc4c(c(N)c32)CCCC4)cc1OC (racemic)
- viability at 10 µM [3]: 48.4%
- IC50 [1]: 0.19 µM
- IC50 [2]: > 100 µM
- Ki [4]: 0.49 µM

Structure (SMILES): COc1ccc(OC)c(C2c3c(n[nH]c3C)Oc3nc4c(c(N)c32)CCCC4)c1 (racemic)
- IC50 [1]: 0.5 µM
- IC50 [2]: > 100 µM

Structure (SMILES): Cc1[nH]nc2c1C(c1cccc3ccccc13)c1c(nc3c(c1N)CCCC3)O2 (racemic)
- IC50 [1]: 0.32 µM
- IC50 [2]: 15 µM

Structure (SMILES): Cc1[nH]nc2c1C(c1ccccc1F)c1c(nc3c(c1N)CCCC3)O2 (racemic)
- IC50 [1]: 0.59 µM
- IC50 [2]: 33 µM
